These results are taken from paper PMC11359702, “Synthesis and Biochemical Evaluation of Ethanoanthracenes and Related Compounds: Antiproliferative and Pro-Apoptotic Effects in Chronic Lymphocytic Leukemia (CLL)” (Pharmaceuticals, 2024).

One data set deals with PGA-1 cells. The experiment in a line: alamarBlue cell viability assay. The conditions noted are these: for viability at 10 µM: read-out: cell viability; for IC50: read-out: PGA-1 IC50. In general terms: Resazurin is reduced to fluorescent resorufin, in cell work by metabolically active cells.
The test system of data set [1] is HG-3 cells. Nature of the data set: alamarBlue cell viability assay. As to conditions: HG-3, 24 h; for IC50: read-out: HG-3 IC50; for viability at 10 µM: read-out: cell viability, HG-3, 10 µM, 24 h, vehicle = 100%; for viability at 1 µM: read-out: cell viability, HG-3, 1 µM, 24 h, vehicle = 100%.
Data set [2] relates to HG-3 and PGA-1 cell lines. Nature of the data set: alamarBlue cell viability assay, mean of both CLL cell lines. It is filed as cell-based, human. As to conditions: mean of HG-3 and PGA-1.
Data set [3] in a line: HPLC stability study in phosphate buffers. It is filed as physicochemical. The conditions noted are these: for % remaining 24 h pH 4 / % remaining 24 h pH 7.4 / % remaining 24 h pH 9 / remaining at 24 h, 14.6 µg/mL: HPLC; for recovery at 24 h: over the pH range studied (pH 4, 7.4 and 9); for remaining at 24 h, 14.6 µg/mL / half-life at 14.6 µg/mL: phosphate buffer. The method, then: A preliminary stability study was carried out on selected chalcones, maleic anhydride and maleimide adducts at acidic, neutral and basic conditions (pH 4, 7.4 and 9) using HPLC to determine suitability for further preclinical investigations. […] A possible degradation route for the maleimide 23n could be through the hydrolysis of the cyclic imide of the maleimide ring, leading to the resultant amic acid product.
All samples were analyzed using acetonitrile–water (80:20%, 70:30%, 60:40% isocratic) as the mobile phase over 10 min and a flow rate of 1 mL/min. Stock solutions were prepared by dissolving 5 mg of compounds in a mobile phase ([(acetonitrile (80%): water (20%)], 10 mL). Anhydride 22h was not detected at its retention time of 5.2 min at pH 9.0. The data presented represent the results of single experiments.
The HPLC stability studies for compounds 21a, 21i, 22h, 23a, 23g, 23n, 24a, 24h, 26a and 26n were performed using a Symmetry® column (C18, 5 µm, 4.6 × 150 mm), a Waters 2487 Dual Wavelength Absorbance detector, and an HPLC pump: Waters 1525 binary and Autosampler; Waters 717 plus (Waters Corporation, Milford, MA, USA), mobile phase [(acetonitrile (80%) and water (20%)] with a typical run time of 10 min and a flow rate of 1 mL/min with detection at 254 nm. The selected compounds 21a, 21i, 22h, 23a, 23g, 23n, 24a, 24h, 26a and 26n (5 mg) in the mobile phase (10 mL) provided the stock solution for the analysis. The phosphate buffers were prepared at pH values of 4, 7.4 and 9, as described in the British Pharmacopoeia monograph 2019. The stock solution (30 µL) was added to the appropriate buffer (1 mL) and retained at 37 °C. Samples were then analyzed over the following 24-h period at selected time intervals (t = 0 min, 5 min, 30 min, 60 min, 90 min, 120 min and 24 h).

Data set [4] deals with HG-3 cells.
Setting [5] is: pH 4 buffer, 37 °C, read-out: % remaining 24 h pH 4.
Where [6] appears, read: pH 4 buffer, 37 °C, read-out: Half-life pH 4 (converted).
The mark [7] stands for this setting: pH 7.4 buffer, 37 °C, read-out: % remaining 24 h pH 7.4.
Setting [8] is: pH 7.4 buffer, 37 °C, read-out: Half-life pH 7.4 (converted).
Setting [9] is: pH 9 buffer, 37 °C, read-out: % remaining 24 h pH 9.
Where [10] appears, read: pH 9 buffer, 37 °C, read-out: Half-life pH 9 (converted).

SMILES strings stand for the structures. Values joined by “and” are separate entries in the source; they are usually repeats but may differ in a detail not shown here. Equal entries are not always repeated. Where two headings read alike, the source gives them in different places. Where only a bound is given, the exact number is not on record here.

What is called viability is the share of living cells, or the viability signal relative to a control. Take `O=C(/C=C/c1c2ccccc2cc2ccccc12)c1ccc(Cl)cc1` [Compound 21l, (E)-3-(anthracen-9-yl)-1-(4-chlorophenyl)prop-2-en-1-one]: in the data set with PGA-1 cells (Homo sapiens, 24 h), the viability at 10 µM was 70%.
Broadly, the IC50 is the concentration that inhibits the measured activity by half. In the case of `O=C1NC(=O)C2C1C1c3ccccc3C2(C=C[N+](=O)[O-])c2ccccc21` (stereo not shown) [Compound 20d], the half-inhibitory concentration (IC50) came to 0.78 µM in the data set with HG-3 cells [1] (Homo sapiens); 0.76 µM in the data set on PGA-1 cells (Homo sapiens, 24 h); 0.77 µM in data set [2] (Homo sapiens, CLL cell). For the same molecule, the viability at 10 µM is 14 to 43% with HG-3 cells [1] (Homo sapiens) and 17% in the data set with PGA-1 cells (Homo sapiens, 24 h).
Regarding `O=C(/C=C/C12c3ccccc3C(c3ccccc31)C1C(=O)N(c3ccccc3)C(=O)C12)c1ccc(F)cc1` (stereo not shown) [Compound 24h], in data set [3] (pH 4 buffer, 37 °C), the “Half-life pH 4” value came to 14.8 h; the “% remaining 24 h pH 4” value was 25% and 24.97%. Besides, in data set [3] (pH 7.4 buffer, 37 °C), the “Half-life pH 7.4” value is on record as above 24 h; the “% remaining 24 h pH 7.4” value is 80% and 79.48%. Besides, in data set [3] (pH 9 buffer, 37 °C), the “Half-life pH 9” value is listed as above 24 h; the “% remaining 24 h pH 9” value is 81% and 80.99%.
Broadly, the cell viability is a per cent measure of how many cells are alive, often set against a control. The low end stands for more harm to the cells, the high end for less harm to the cells. Take `O=C(C=CC12c3ccccc3C(c3ccccc31)C1C(=O)N(c3ccccc3)C(=O)C12)c1cccs1` (stereo not shown) [Compound 24q, 9-(E)-3-Oxo-3-(thiophen-2-yl)prop-1-en-1-yl)-13-phenyl-9,10-dihydro-9,10-[3,4]epipyrroloanthracene-12,14-dione]: the cell viability in the data set with HG-3 cells [4] (10 µM) amounted to 24%.
Regarding `O=C1C2C(C(=O)N1c1ccccc1)C1(/C=C/[N+](=O)[O-])c3ccccc3C2(Cl)c2ccccc21` (stereo not shown) [Compound 20g], the viability at 10 µM in the data set on HG-3 cells [1] (Homo sapiens) was found to be 2%; in the data set on PGA-1 cells (Homo sapiens, 24 h) it was 1%.
On to `COc1ccc(C(=O)/C=C/C23c4ccccc4C(c4ccccc42)C2C(=O)NC(=O)C23)cc1` (stereo not shown) [Compound 23i, (E)-9-(3-(4-Methoxyphenyl)-3-oxoprop-1-en-1-yl)-9,10-dihydro-9,10-[3,4]epipyrroloanthracene-12,14-dione], for which the IC50 with HG-3 cells [1] turned out to be 10.3 µM; in the data set on PGA-1 cells (PGA-1, 24 h), 12.6 µM; in data set [2], 11.4 µM.
Regarding `Nc1nc(F)nc2c1ncn2[C@@H]1O[C@H](CO)[C@@H](O)[C@@H]1O` [Fludarabine, fludarabine, reference compound], the IC50 in the data set on HG-3 cells [1] (Homo sapiens) was 28.1 µM; in the data set with PGA-1 cells (Homo sapiens, 24 h), 32 µM; in data set [2] (Homo sapiens, CLL cell), 30.1 µM.
On to `O=C(/C=C/c1c2ccccc2cc2ccccc12)c1ccccn1` [Compound 21n, (E)-3-(anthracen-9-yl)-1-(pyridin-2-yl)prop-2-en-1-one], for which the viability at 1 µM in the data set on HG-3 cells [1] (Homo sapiens) was 50 to 61%. In addition, the viability at 10 µM in the data set with HG-3 cells [1] (Homo sapiens) is 37 to 54%; with PGA-1 cells (Homo sapiens, 24 h), 47%.
The amount remaining is what is left of the initial amount, in per cent. The term half-life denotes how long it takes for the measured level to halve. For the molecule `O=C(/C=C/c1c2ccccc2cc2ccccc12)c1ccc(Br)cc1` [Compound 21a, (E)-3-(anthracen-9-yl)-1-(4-bromophenyl)prop-2-en-1-one], the “recovery at 24 h” value in data set [3] is below 50%. Further, the values for the fraction remaining at 24 h, 14.6 µg/mL in data set [3] (setting [5]), in data set [3] (setting [7]) and in data set [3] (setting [9]) were 46.3%, 38.6% and 38.6%, respectively. Moreover, the half-life at 14.6 µg/mL was 3.25 h in data set [3] (setting [6]), 2 h in data set [3] (setting [8]) and 1.5 h in data set [3] (setting [10]).
Take `N#CC1CC2c3ccccc3C1(/C=C/[N+](=O)[O-])c1ccccc12` (stereo not shown) [Compound 20e]: the 50% inhibitory concentration (IC50) worked out at 1.6 µM in the data set with HG-3 cells [1] (Homo sapiens); 1.1 µM with PGA-1 cells (Homo sapiens, 24 h); 1.4 µM in data set [2] (Homo sapiens, CLL cell). The viability at 10 µM in the data set with HG-3 cells [1] (Homo sapiens) was 14 to 43%; in the data set with PGA-1 cells (Homo sapiens, 24 h), 3%.
`O=C(c1ccccc1)c1ccc(N2C(=O)C3C4c5ccccc5C(/C=C/C(=O)c5cccs5)(c5ccccc54)C3C2=O)cc1` (stereo not shown) [Compound 26q, (E)-13-(4-Benzoylphenyl)-9-(3-oxo-3-(thiophen-2-yl)prop-1-en-1-yl)-9,10-dihydro-9,10-[3,4]epipyrroloanthracene-12,14-dione] returned a cell viability in the data set on HG-3 cells [4] (10 µM) of 56%.
In data set [2] (Homo sapiens, CLL cell), `COc1c2ccccc2c(/C=C/[N+](=O)[O-])c2ccccc12` [Compound 18b, reference compound] gave a half-inhibitory concentration (IC50) of 0.73 µM.
As for `O=C(/C=C/c1c2ccccc2cc2ccccc12)c1ccc(Cl)cc1Cl` [Compound 21d, (E)-3-(anthracen-9-yl)-1-(2,4-dichlorophenyl)prop-2-en-1-one], in the data set with HG-3 cells [1] (Homo sapiens), the viability at 1 µM lay within 50 to 61% and the viability at 10 µM was in the range of 37 to 54%. Further, the viability at 10 µM with PGA-1 cells (Homo sapiens, 24 h) came out at 50%.
In the data set on HG-3 cells [4] (10 µM), `O=C(/C=C/C12c3ccccc3C(c3ccccc31)C1C(=O)N(c3ccc(Cl)cc3)C(=O)C12)c1ccc(F)cc1` (stereo not shown) [Compound 25h, (E)-13-(4-Chlorophenyl)-9-(3-(4-fluorophenyl)-3-oxoprop-1-en-1-yl)-9,10-dihydro-9,10[3,4]epipyrroloanthracene-12,14-dione] returned a cell viability of 35%.
`O=C(/C=C/C12c3ccccc3C(c3ccccc31)C1C(=O)N(c3ccccc3)C(=O)C12)c1ccc(Br)cc1` (stereo not shown) [Compound 24a]: the viability at 10 µM is 14% in the data set with HG-3 cells [1] (Homo sapiens) and 25% with PGA-1 cells (Homo sapiens, 24 h). Moreover, the “recovery at 24 h” value in data set [3] was below 50%. Also, the share remaining at 24 h, 14.6 µg/mL is 48.4% in data set [3] (setting [5]), 45.2% in data set [3] (setting [7]) and 33.6% in data set [3] (setting [9]). Also, the figures for the half-life at 14.6 µg/mL in data set [3] (setting [6]), in data set [3] (setting [8]) and in data set [3] (setting [10]) were 4.17 h, 23.5 h and 23.5 h, respectively.
In the case of `O=C(/C=C/C12c3ccccc3C(c3ccccc31)C1C(=O)OC(=O)C12)c1ccc(F)cc1` (stereo not shown) [Compound 22h], in data set [3], the “recovery at 24 h” value is below 50%. In data set [3] (pH 4 buffer, 37 °C), the “Half-life pH 4” value was determined as 2.1 h and the “% remaining 24 h pH 4” value is reported as 0.81%. Besides, in data set [3] (pH 7.4 buffer, 37 °C), the “Half-life pH 7.4” value was determined as 1 h and the “% remaining 24 h pH 7.4” value is 3.13%. Also, the “% remaining 24 h pH 9” value in data set [3] (pH 9 buffer, 37 °C) is given as “not detected”.
`O=C(C=CC12c3ccccc3C(c3ccccc31)C1C(=O)N(c3ccccc3)C(=O)C12)c1ccccn1` (stereo not shown) [Compound 24n, 9-(E)-3-Oxo-3-(pyridin-2-yl)prop-1-en-1-yl)-13-phenyl-9,10-dihydro-9,10-[3,4]epipyrroloanthracene-12,14-dione]: the cell viability in the data set on HG-3 cells [4] (1 µM) is recorded as 48%; in the data set on HG-3 cells [4] (10 µM) it was 4%.
In the case of `COc1ccc(C(=O)/C=C/c2c3ccccc3cc3ccccc23)cc1OC` [Compound 21e, (E)-3-(Anthracen-9-yl)-1-(3,4-dimethoxyphenyl)prop-2-en-1-one], in the data set on HG-3 cells [1] (Homo sapiens), the viability at 1 µM fell in the range of 50 to 61% and the viability at 10 µM fell in the range of 37 to 54%.
Consider `COc1ccc(C(=O)/C=C/c2c3ccccc3cc3ccccc23)cc1` [Compound 21i, (E)-3-(anthracen-9-yl)-1-(4-methoxyphenyl)prop-2-en-1-one], for which the viability at 10 µM with PGA-1 cells (Homo sapiens, 24 h) came to 49%. Moreover, the “recovery at 24 h” value in data set [3] was below 50%. Further, the share remaining at 24 h, 14.6 µg/mL in data set [3] (setting [5]) is 27.9%; in data set [3] (setting [7]) it was 26.6%; in data set [3] (setting [9]), 42.1%. For the same molecule, the values for the half-life at 14.6 µg/mL in data set [3] (setting [6]), in data set [3] (setting [8]) and in data set [3] (setting [10]) were around 11.5 h, 3.85 h and around 11.5 h, respectively.
For the molecule `O=C(C=CC12c3ccccc3C(c3ccccc31)C1C(=O)N(c3ccc(Cl)cc3)C(=O)C12)c1cccs1` (stereo not shown) [Compound 25q, (E)-13-(4-Chlorophenyl)-9-(3-oxo-3-(thiophen-2-yl)prop-1-en-1-yl)-9,10-dihydro-9,10-[3,4]epipyrroloanthracene-12,14-dione], in the data set on HG-3 cells [4] (10 µM), the cell viability came out at 47%.
Regarding `O=C1OC(=O)C2C1C1c3ccccc3C2(/C=C/[N+](=O)[O-])c2ccccc21` (stereo not shown) [Compound 20h], the viability at 10 µM turned out to be 31% with HG-3 cells [1] (Homo sapiens) and 2% with PGA-1 cells (Homo sapiens, 24 h).
Consider `O=C(/C=C/c1c2ccccc2cc2ccccc12)c1ccc(F)cc1` [Compound 21h, (E)-3-(anthracen-9-yl)-1-(4-fluorophenyl)prop-2-en-1-one], for which the viability at 10 µM in the data set with PGA-1 cells (Homo sapiens, 24 h) stood at 70%.
